Measurements taken from patent US5643912A, “Pyrazinoic acid esters as anti-mycobacterium avium agents” (The Research Foundation of State University of NY, priority 1996, dated 1997).
In brackets after ≈: the same amount, converted by molar mass. Read-outs that look alike come from different tables or passages of the source.

Legend:
Format in all cases: cell-based
M. avium 101 = experiment: Broth dilution MIC vs M. avium 101; conditions: Mycobacterium avium, 7H10 broth, pH 5.8
M. kansasii SWK = experiment: Broth dilution MIC vs M. kansasii SWK; conditions: Mycobacterium kansasii, 7H10 broth, pH 5.8
M. tuberculosis 102 = experiment: Broth dilution MIC vs M. tuberculosis 102
[1] = Mycobacterium tuberculosis, 102, pH 5.8, M. tuberculosis 102, 7H10 broth, read-out: MIC

Structure (SMILES)	MIC (M. avium 101) [µg/mL]	MIC (M. kansasii SWK) [µg/mL]	MIC (M. tuberculosis 102; [1]) [µg/mL]	MIC (M. tuberculosis 102; M. tuberculosis 102, 7H10 broth, pH 5.8) [µg/mL]
CCCCCCCCCCOC(=O)c1cnccn1 [Example 1]	32 (≈ 121 µM)	0.25 (≈ 0.946 µM)	0.5 (≈ 1.89 µM)	
O=C(Oc1ccc(F)cc1)c1cnccn1 [Example 3]	128 (≈ 587 µM)	64 (≈ 293 µM)	32 (≈ 147 µM)	
O=C(Oc1c(Br)cc(Br)cc1Br)c1cnccn1 [Example 4]	128 (≈ 293 µM)	64 (≈ 146 µM)	32 (≈ 73.2 µM)	
CCCCCCCCCCOC(=O)c1cnc(Cl)cn1 [Example 6]	32 (≈ 107 µM)	0.5 (≈ 1.67 µM)	0.5 (≈ 1.67 µM)	
CCCCCCCCCCCCCCCOC(=O)c1cnc(Cl)cn1 [Example 7]	> 16	0.25 (≈ 0.678 µM)	0.13 (≈ 0.352 µM)	
CCCCCCC(C)OC(=O)c1cnc(Cl)cn1 (stereo not drawn) [Example 8]	32 (≈ 118 µM)	< 0.25	< 0.25	
COCCOCCOC(=O)c1cnc(Cl)cn1 [Example 9]	64 (≈ 246 µM)	2 (≈ 7.67 µM)	2 (≈ 7.67 µM)	
CCOCCOCCOC(=O)c1cnc(Cl)cn1 [Example 10]	64 (≈ 233 µM)	4 (≈ 14.6 µM)	1 (≈ 3.64 µM)	
CCCCOCCOCCOC(=O)c1cnc(Cl)cn1 [Example 11]	64 (≈ 211 µM)	2 (≈ 6.61 µM)	0.5 (≈ 1.65 µM)	
COCCOCCOCCOC(=O)c1cnc(Cl)cn1 [Example 12]	64 (≈ 210 µM)	8 (≈ 26.3 µM)	2 (≈ 6.56 µM)	
CCCCCCOC(=O)c1cnc(Cl)cn1 [Example 13]	32 (≈ 132 µM)	< 0.03	0.13 (≈ 0.536 µM)	
CCCCCCCCOC(=O)c1cnc(Cl)cn1 [Example 14]	16 (≈ 59.1 µM)	< 0.03	0.06 (≈ 0.222 µM)	
CCCOC(=O)c1cnc(Cl)cn1 [Example 15]	16 (≈ 79.8 µM)	0.25 (≈ 1.25 µM)	0.06 (≈ 0.299 µM)	
CCCCCCC(CCCCCC)OC(=O)c1cnc(Cl)cn1 [Example 16]	16 (≈ 46.9 µM)	0.5 (≈ 1.47 µM)	0.25 (≈ 0.733 µM)	
CCCCCCCOC(=O)c1cnc(Cl)cn1 [Example 18]	8 (≈ 31.2 µM)	< 0.03	0.06 (≈ 0.234 µM)	
CCCCCCCCC(C)OC(=O)c1cnc(Cl)cn1 (stereo not drawn) [Example 19]	32 (≈ 107 µM)	0.13 (≈ 0.435 µM)	0.03 (≈ 0.1 µM)	
CCCCCCCCCOC(=O)c1cnc(Cl)cn1 [Example 20]	32 (≈ 112 µM)	< 0.13	< 0.03	
CCCCCCC(C)(C)OC(=O)c1cnc(Cl)cn1 [Example 21]	64 (≈ 225 µM)	1 (≈ 3.51 µM)	0.25 (≈ 0.878 µM)	
CCCCCCC(C)(C)OC(=O)c1cnc(Cl)cn1 [Example 22]				0.13 (≈ 0.456 µM)
COC(=O)c1cnc(F)cn1 [Example 23]	64 (≈ 410 µM)	8 (≈ 51.2 µM)	4 (≈ 25.6 µM)	
CCCCCC(C)OC(=O)c1cnc(Cl)cn1 (stereo not drawn) [Example 24]	32 (≈ 125 µM)	< 0.13	0.06 (≈ 0.234 µM)	
CCCCCCCCCCCOC(=O)c1cnc(Cl)cn1 [Example 25]	16 (≈ 51.1 µM)	0.06 (≈ 0.192 µM)	0.25 (≈ 0.799 µM)	
CCCCCOC(=O)c1cnc(Cl)cn1 [Example 26]	32 (≈ 140 µM)	0.03 (≈ 0.131 µM)	0.06 (≈ 0.262 µM)	

Structure (SMILES)	MIC (M. avium 101) [µg/mL]	MIC (M. kansasii SWK) [µg/mL]	MIC (M. tuberculosis 102; [1]) [µg/mL]	MIC (M. tuberculosis 102; M. tuberculosis 102, 7H10 broth, pH 5.8) [µg/mL]
CCCCCCCCCCOC(=O)c1cnc(F)cn1 [Example 27]	32 (≈ 113 µM)	1 (≈ 3.54 µM)	2 (≈ 7.08 µM)	
CCCCCCOC(=O)c1cnc(F)cn1 [Example 28]	64 (≈ 283 µM)	8 (≈ 35.4 µM)		
CCCCCCC(C)OC(=O)c1cnc(F)cn1 (stereo not drawn) [Example 29]	32 (≈ 126 µM)	0.03 (≈ 0.118 µM)	2 (≈ 7.86 µM)	
O=C(OCc1ccccc1)c1cnc(Cl)cn1 [Example 30]	8 (≈ 32.2 µM)	1 (≈ 4.02 µM)	1 (≈ 4.02 µM)	
CCCCOC(=O)c1cnc(Cl)cn1 [Example 31]	64 (≈ 298 µM)	< 1	0.25 (≈ 1.16 µM)	
C=CC(C)OC(=O)c1cnc(Cl)cn1 (stereo not drawn) [Example 32]	64 (≈ 301 µM)	< 1	2 (≈ 9.41 µM)	
C=CCOC(=O)c1cnc(Cl)cn1 [Example 33]	64 (≈ 322 µM)	< 1	1 (≈ 5.04 µM)	
CC(C)COC(=O)c1cnc(Cl)cn1 [Example 34]	64 (≈ 298 µM)	< 1	2 (≈ 9.32 µM)	
CC(C)(C)OC(=O)c1cnc(Cl)cn1 [Example 35]	128 (≈ 596 µM)	< 1	2 (≈ 9.32 µM)	
CCCCCCCCCC(C)OC(=O)c1cnc(Cl)cn1 (stereo not drawn) [Example 36]	16 (≈ 51.1 µM)	0.25 (≈ 0.799 µM)	0.25 (≈ 0.799 µM)	
CCCCCCCC(C)(CCCC)OC(=O)c1cnc(Cl)cn1 (stereo not drawn) [Example 37]	> 64	16 (≈ 46.9 µM)	8 (≈ 23.5 µM)	
CCCCCCCCC(C)(CCCC)OC(=O)c1cnc(Cl)cn1 (stereo not drawn) [Example 38]	> 64	> 16	16 (≈ 45.1 µM)	
COC(=O)c1cnc(I)cn1 [Example 39]	256 (≈ 970 µM)	8 (≈ 30.3 µM)	16 (≈ 60.6 µM)	
CCCCCC(C)(CCCC)OC(=O)c1cnc(Cl)cn1 (stereo not drawn) [Example 40]	> 256	16 (≈ 51.1 µM)	4 (≈ 12.8 µM)	
CCCCCCCC(C)(CCCCC)OC(=O)c1cnc(Cl)cn1 (stereo not drawn) [Example 47]	> 64		2 (≈ 5.64 µM)	
CCCCCCCCCC(C)(CCCCCCC)OC(=O)c1cnc(Cl)cn1 (stereo not drawn) [Example 48]	> 64		0.5 (≈ 1.22 µM)	
C/C=C/COC(=O)c1cnccn1 [Example 54]			2 (≈ 11.2 µM)	
CC1CCC(C(C)C)C(OC(=O)c2cnccn2)C1 (stereo not drawn) [Example 56]			2 (≈ 7.62 µM)	
Cc1ccc(OC(=O)c2cnccn2)cc1 [Example 64]		100 (≈ 467 µM)	100 (≈ 467 µM)	
CC(C)(C)c1ccc(OC(=O)c2cnccn2)cc1 [Example 65]		25 (≈ 97.5 µM)	25 (≈ 97.5 µM)	
O=C(Oc1c(F)c(F)c(F)c(F)c1F)c1cnccn1 [Example 66]		25 (≈ 86.2 µM)		
O=C(Oc1ccc(-c2ccccc2)cc1)c1cnccn1 [Example 67]		25 (≈ 90.5 µM)		
